Test [1] concerns the target Myc proto-oncogene protein (Homo sapiens, UniProt P01106). In words: Inhibition of human c-Myc assessed as reduction in c-Myc/Max/Ebox DNA complex formation using pre-formed complex of c-Myc and biotinylated DNA containing single Ebox-sequence followed by compound addition and further addition of his6-tagged c-Max and incubated for 2 hrs by AlphaScreen assay. For orientation: In Alpha technology, singlet oxygen from a donor bead excites a nearby acceptor bead.

The subject of test [2] is NCI-H2171. In words: Antiproliferative activity against human NCI-H2171 cells after 72 hrs by ATPlite assay. It counts as functional, cell-based. The conditions noted are these: NCI-H2171, 72 h. Background: ATP-based viability assays read luminescence as a measure of living cells.

Broadly, the IC50 is the concentration that inhibits the measured activity by half.

Some results are limits rather than exact numbers.

Chain of Myc proto-oncogene protein (P01106 whole entry): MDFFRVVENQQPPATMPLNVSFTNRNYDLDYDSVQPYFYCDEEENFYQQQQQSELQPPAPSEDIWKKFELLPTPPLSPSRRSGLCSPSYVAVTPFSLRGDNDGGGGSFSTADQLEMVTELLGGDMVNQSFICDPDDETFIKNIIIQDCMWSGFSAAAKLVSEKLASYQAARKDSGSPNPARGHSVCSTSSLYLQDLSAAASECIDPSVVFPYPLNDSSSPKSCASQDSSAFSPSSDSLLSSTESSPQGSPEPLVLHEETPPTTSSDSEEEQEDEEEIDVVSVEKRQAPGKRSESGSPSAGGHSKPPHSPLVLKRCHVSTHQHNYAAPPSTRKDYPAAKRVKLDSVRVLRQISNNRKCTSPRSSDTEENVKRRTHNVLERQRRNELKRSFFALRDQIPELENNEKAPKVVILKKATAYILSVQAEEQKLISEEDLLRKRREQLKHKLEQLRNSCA

As for `COCCNCCC(=O)Nc1sc2c(c1-c1nc3ccc(-c4ccnc(N)c4)cc3s1)CCNC2`, the IC50 is 0.3 to 1 µM in test [1] and below 0.3 µM in test [2].

Regarding `CC(=O)Nc1sc2c(c1-c1nc3cc(-c4ccncc4)ccc3s1)CCNC2`, the IC50 in test [1] was 0.3 to 1 µM; in test [2] it was below 0.3 µM.

For the molecule `CNS(=O)(=O)c1cccc(-c2ccc3sc(-c4c(NC(=O)CCNCCOC)sc5c4CCNC5)nc3c2)c1`, the IC50 was 0.3 to 1 µM in test [1] and below 0.3 µM in test [2].

Consider `COCCNCCC(=O)Nc1sc2c(c1-c1nc3cc(-c4ccccc4NS(C)(=O)=O)ccc3s1)CCNC2`, for which the values for the IC50 in test [1] and in test [2] were 1 to 10 µM and below 0.3 µM, respectively.

`COCCNCCC(=O)Nc1sc2c(c1-c1nc3cc(-c4cccnc4C)ccc3s1)CCNC2`: the IC50 in test [1] was 1 to 10 µM; in test [2] it was below 0.3 µM.

In the case of `COCCNCCC(=O)Nc1sc2c(c1-c1nc3cc(F)ccc3s1)CCN[C@H]2C`, in test [2], the IC50 was below 0.3 µM.

For `COCCNCCC(=O)Nc1sc2c(c1-c1nc3cc(-c4ccc(C(=O)N(C)C)cc4F)ccc3s1)CCNC2`, the IC50 in test [1] was 0.3 to 1 µM; in test [2], below 0.3 µM.

Take `COCCNCCC(=O)Nc1sc2c(c1-c1nc3cc(-c4ccc(OC(C)C)nc4)ccc3s1)CCNC2`: the IC50 in test [1] was 1 to 10 µM; in test [2] it was below 0.3 µM.

Regarding `CC(C)NCCC(=O)Nc1sc2c(c1-c1nc3cc(O)ccc3s1)CCNC2`, the IC50 was below 0.3 µM in test [1] and 0.3 to 1 µM in test [2].

Consider `COCCNCCC(=O)Nc1sc2c(c1-c1nc3cc(-c4ccncc4C)ccc3s1)CCNC2`, for which the results for the IC50 in test [1] and in test [2] were 1 to 10 µM and below 0.3 µM, respectively.

For the molecule `COCCNCCC(=O)Nc1sc2c(c1-c1nc3cc(-c4cncc(C#N)c4)ccc3s1)CCNC2`, the IC50 in test [1] and in test [2] was 0.3 to 1 µM each time.

For `COCCNCCC(=O)Nc1sc2c(c1-c1nc3c(N4CC(O)C4)cccc3s1)CCNC2`, the IC50 in test [1] and in test [2] was below 0.3 µM each time.

On to `CC(C)N1CCc2c(sc(NC(=O)CCNCCc3cccnc3)c2-c2nc3ccccc3s2)C1`, for which the IC50 in test [1] and in test [2] was 0.3 to 1 µM throughout.

With `COCCNCCC(=O)Nc1sc2c(c1-c1nc3cc(-c4cccc(NS(C)(=O)=O)c4)ccc3s1)CCNC2`, the IC50 in test [1] was 1 to 10 µM; in test [2], below 0.3 µM.

For `CNCCC(=O)Nc1sc2c(c1-c1nc3ccccc3s1)CCN(C(C)C)C2`, the concentration for half-maximal inhibition (IC50) in test [1] and in test [2] was below 0.3 µM throughout.

As for `COCCNCCC(=O)Nc1sc2c(c1-c1nc3ccc(-c4ccc(N5CCN(C)CC5)cc4)cc3s1)CCNC2`, the IC50 in test [1] and in test [2] was below 0.3 µM each time.

On to `CC(C)N1CCc2c(sc(NC(=O)CCN3CCOCC3)c2-c2nc3ccccc3s2)C1`, for which the concentration for half-maximal inhibition (IC50) in test [1] is 0.3 to 1 µM; in test [2], below 0.3 µM.

On to `CC(C)NCCC(=O)Nc1sc2c(c1-c1nc3cc(S(=O)(=O)c4ccccc4)ccc3s1)CCNC2`, for which the IC50 in test [1] was 0.3 to 1 µM; in test [2] it was below 0.3 µM.

For the molecule `COCCNCCC(=O)Nc1sc2c(c1-c1nc3cc(-c4cccc(S(N)(=O)=O)c4)ccc3s1)CCNC2`, the IC50 in test [1] and in test [2] was 0.3 to 1 µM in each case.

Regarding `COCCNCCC(=O)Nc1sc2c(c1-c1nc3cc(-c4ccc(O)nc4)ccc3s1)CCNC2`, the IC50 was below 0.3 µM in test [1] and 0.3 to 1 µM in test [2].

With `COCCNCCC(=O)Nc1sc2c(c1-c1nc3ccc(-c4ccc(F)nc4)cc3s1)CCNC2`, the IC50 in test [1] was 0.3 to 1 µM; in test [2] it was below 0.3 µM.

With `COCCNCCC(=O)Nc1sc2c(c1-c1nc3ccc(-c4cncc(C(F)(F)F)c4)cc3s1)CCNC2`, the 50% inhibitory concentration (IC50) in test [1] was above 10 µM; in test [2], below 0.3 µM.

For `COCCNCCC(=O)Nc1sc2c(c1-c1nc3cc(-c4ccc(C)nc4)ccc3s1)CCNC2`, the values for the IC50 in test [1] and in test [2] were 0.3 to 1 µM and below 0.3 µM, respectively.

As to `COCCNCCC(=O)Nc1sc2c(c1-c1nc3cc(-c4ccc(N5CCOCC5)nc4)ccc3s1)CCNC2`, the IC50 in test [1] and in test [2] was 0.3 to 1 µM each time.

As for `COCCNCCC(=O)Nc1sc2c(c1-c1nc3cc(-c4cnc(N)c(C(F)(F)F)c4)ccc3s1)CCNC2`, the figures for the IC50 in test [1] and in test [2] were 1 to 10 µM and below 0.3 µM, respectively.

Regarding `Cc1cc(-c2ccc3sc(-c4c(NC(=O)CCNC(C)C)sc5c4CCNC5)nc3c2)n(C)n1`, the figures for the IC50 in test [1] and in test [2] were below 0.3 µM and 0.3 to 1 µM, respectively.

Take `COCCNCCC(=O)Nc1sc2c(c1-c1nc3cc(-c4ccnc(C(F)(F)F)c4)ccc3s1)CCNC2`: the IC50 was 0.3 to 1 µM in test [1] and below 0.3 µM in test [2].

With `COCCNCCC(=O)Nc1sc2c(c1-c1nc3ccc(-c4ccc5nc(N)ncc5c4)cc3s1)CCNC2`, the figures for the IC50 in test [1] and in test [2] were above 10 µM and below 0.3 µM, respectively.

On to `COc1ccc2sc(-c3c(NC(=O)CCNC(C)C)sc4c3CCNC4)nc2c1Cl`, for which the IC50 in test [1] is below 0.3 µM; in test [2], 0.3 to 1 µM.

With `CC[C@H](C)NCCC(=O)Nc1sc2c(c1-c1nc3ccccc3s1)CC(C)NC2C` (single isomer, unassigned; 621), the IC50 in test [2] was 1 to 10 µM.

For the molecule `CC[C@H](C)NCCC(=O)Nc1sc2c(c1-c1nc3ccccc3s1)CC(C)NC2C` (single isomer, unassigned; 624), the IC50 in test [2] was below 0.3 µM.

As to `COCCNCCC(=O)Nc1sc2c(c1-c1nc3ccccc3s1)C[C@@H](C)NC2`, in test [2], the IC50 was below 0.3 µM.

`CC(=O)Nc1sc2c(c1-c1nc3ccccc3s1)C[C@@H](C)N[C@H]2C` (relative stereo) gave an IC50 in test [2] of 0.3 to 10 µM.

For the molecule `Cc1cc(C)c(CNCCC(=O)Nc2sc3c(c2-c2nc4ccccc4s2)CCN(C(C)C)C3)c(=O)[nH]1`, in test [1], the IC50 lay within 1 to 10 µM.

As to `COCCNCCC(=O)Nc1sc2c(c1-c1nc3cc(-c4cccnc4OC)ccc3s1)CCNC2`, the concentration for half-maximal inhibition (IC50) in test [1] was above 10 µM.

With `CC(C)N1CCc2c(sc(NC(=O)CCNc3ccccc3)c2-c2nc3ccccc3s2)C1`, the IC50 in test [1] was above 10 µM.

On to `COCCNCCC(=O)Nc1sc2c(c1-c1nc3cc(-c4cc5ccccc5[nH]4)ccc3s1)CCNC2`, for which the IC50 in test [1] is above 10 µM.

On to `CC(C)NCCC(=O)Nc1sc2c(c1-c1nc3cc(C4=CCNCC4)ccc3s1)CCNC2`, for which, in test [1], the IC50 is below 0.3 µM.

Turning to `COCCNCCC(=O)Nc1sc2c(c1-c1nc3cc(-c4ccc(C)c(C#N)c4)ccc3s1)CCNC2`, the IC50 in test [1] was above 10 µM.

On to `COCCNCCC(=O)Nc1sc2c(c1-c1nc3ccc(-c4cccc(C(=O)N5CCN(C)CC5)c4)cc3s1)CCNC2`, for which, in test [1], the IC50 was in the range of 0.3 to 1 µM.

For `COCCNCCC(=O)Nc1sc2c(c1-c1nc3ccc(-c4ccccc4O)cc3s1)CCNC2`, the IC50 in test [1] was above 10 µM.

Regarding `CC(C)NCCC(=O)Nc1sc2c(c1-c1nc3cc(C#N)ccc3s1)CCNC2`, in test [1], the IC50 is below 0.3 µM.

Consider `COCCNCCC(=O)Nc1sc2c(c1-c1nc3cc(-c4ccc(OC)c(OC)c4)ccc3s1)CCNC2`, for which, in test [1], the IC50 was above 10 µM.

On to `COCCNCCC(=O)Nc1sc2c(c1-c1nc3ccc(-c4ccc(C)c(C#N)c4)cc3s1)CCNC2`, for which, in test [1], the IC50 is above 10 µM.

`COCCNCCC(=O)Nc1sc2c(c1-c1nc3ccc(-c4ccc5c(c4)NC(=O)C5)cc3s1)CCNC2`: the IC50 in test [1] is 1 to 10 µM.

Take `COCCNCCC(=O)Nc1sc2c(c1-c1nc3ccc(-c4ccc5cnn(C)c5c4)cc3s1)CCNC2`: the IC50 in test [1] is above 10 µM.

For `COCCNCCC(=O)Nc1sc2c(c1-c1nc3ccc(-c4ccccc4NC(C)=O)cc3s1)CCNC2`, the IC50 in test [1] was above 10 µM.

As to `CCOc1ccc(-c2ccc3nc(-c4c(NC(=O)CCNCCOC)sc5c4CCNC5)sc3c2)cn1`, the IC50 in test [1] is 1 to 10 µM.

Consider `COCCNCCC(=O)Nc1sc2c(c1-c1nc3cc(-c4ccccc4)ccc3s1)CCNC2`, for which the IC50 in test [1] fell in the range of 1 to 10 µM.

`COCCNCCC(=O)Nc1sc2c(c1-c1nc3ccc(-c4cccnc4C)cc3s1)CCNC2`: the IC50 in test [1] was above 10 µM.

`CC[C@H](C)NCCC(=O)Nc1sc2c(c1-c1nc3ccccc3s1)CC(C)NC2C` (single isomer, unassigned; 620) returned an IC50 in test [2] of 1 to 10 µM.

Regarding `COCCNCCC(=O)Nc1sc2c(c1-c1nc3ccc(-c4cnc(N)c(C(F)(F)F)c4)cc3s1)CCNC2`, in test [1], the IC50 is above 10 µM.

Turning to `COCCNCCC(=O)Nc1sc2c(c1-c1nc3cc(-c4ccccc4S(C)(=O)=O)ccc3s1)CCNC2`, the IC50 in test [1] was above 10 µM.

On to `COCCNCCC(=O)Nc1sc2c(c1-c1nc3cc(-c4ccc5ncccc5c4)ccc3s1)CCNC2`, for which, in test [1], the IC50 was above 10 µM.

In test [2], `CC(=O)Nc1sc2c(c1-c1nc3ccc(-c4ccncc4)cc3s1)CCNC2` came in with an IC50 of 0.3 to 1 µM.

As for `COCCNCCC(=O)Nc1sc2c(c1-c1nc3cc(-c4cccc(C(=O)NCCN(C)C)c4)ccc3s1)CCNC2`, the IC50 in test [1] fell in the range of 0.3 to 1 µM.

On to `CNS(=O)(=O)c1ccccc1-c1ccc2nc(-c3c(NC(=O)CCNCCOC)sc4c3CCNC4)sc2c1`, for which the IC50 in test [1] was above 10 µM.

Regarding `COc1cccc(-c2ccc3sc(-c4c(NC(=O)CCNC(C)C)sc5c4CCNC5)nc3c2)c1`, the IC50 in test [1] was 1 to 10 µM.

As for `COCCNCCC(=O)Nc1sc2c(c1-c1nc3cc(-c4ccc5c(c4)NC(=O)CO5)ccc3s1)CCNC2`, the IC50 in test [1] fell in the range of 1 to 10 µM.

Regarding `COCCNCCC(=O)Nc1sc2c(c1-c1nc3cc(-c4ccnc5[nH]ccc45)ccc3s1)CCNC2`, the concentration for half-maximal inhibition (IC50) in test [1] lay within 1 to 10 µM.

As for `COCCNCCC(=O)Nc1sc2c(c1-c1nc3ccc(-c4ccnc5[nH]ccc45)cc3s1)CCNC2`, the IC50 in test [1] was above 10 µM.

With `CC(C)NCCC(=O)Nc1sc2c(c1-c1nc3c(NC(=O)c4ccccc4)cccc3s1)CCNC2`, in test [1], the IC50 was 1 to 10 µM.

For `CC(C)N1CCc2c(sc(NC(=O)CCNc3cccnc3)c2-c2nc3ccccc3s2)C1`, in test [1], the IC50 is 1 to 10 µM.

In the case of `COCCNCCC(=O)Nc1sc2c(c1-c1nc3ccc(-c4ccc(C(=O)N5CCOCC5)cc4)cc3s1)CCNC2`, in test [1], the IC50 lay within 0.3 to 1 µM.

With `COc1ccccc1-c1ccc2sc(-c3c(NC(=O)CCNC(C)C)sc4c3CCNC4)nc2c1`, the IC50 in test [1] lay within 1 to 10 µM.

Regarding `COCCNCCC(=O)Nc1sc2c(c1-c1nc3cc(-c4ccc5c(c4)NC(=O)C5)ccc3s1)CCNC2`, the IC50 in test [1] was above 10 µM.

On to `CC(C)N1CCc2c(sc(NC(=O)CCNc3cccc(O)c3)c2-c2nc3ccccc3s2)C1`, for which the IC50 in test [1] was in the range of 1 to 10 µM.

With `COCCNCCC(=O)Nc1sc2c(c1-c1nc3cc(-c4cccc(C(=O)N5CCN(C)CC5)c4)ccc3s1)CCNC2`, the IC50 in test [1] lay within 1 to 10 µM.

`COCCNCCC(=O)Nc1sc2c(c1-c1nc3ccc(-c4cnc(OC)c(OC)c4)cc3s1)CCNC2`: the IC50 in test [1] is 1 to 10 µM.

Consider `COCCNCCC(=O)Nc1sc2c(c1-c1nc3ccc(-c4ccc5c(c4)OCO5)cc3s1)CCNC2`, for which the IC50 in test [1] was above 10 µM.

For the origin of these results see ChEMBL document CHEMBL4476874, “Compounds for the modulation of myc activity” (2018).
